# Results as given in patent US20130072430A1, “METHODS FOR TREATMENT OR PROPHYLAXIS OF KIDNEY OR LIVER DYSFUNCTION” (NPS PHARMACEUTICALS, INC., priority 2010, published 2013).
# System: Human patients with short bowel syndrome
# Assay: Example 3: change from baseline to week 24 in liver enzyme levels (ALP, ALT, AST, total bilirubin, GGTP) by responder status (reduced parenteral nutrition)
# Type: in vivo
# Conditions: 0.05 mg/kg/day
# Protocol: In this example the data presented in Example 2 are analyzed to evaluate whether the beneficial effects of teduglutide on liver function tests are related to the reduction of parenteral nutrition volume.
# Table 5 depicts the change in liver enzyme levels from baseline to week 24 in responders and non-responders. Responders are human patients with reduced parenteral nutrition, while non-responders are human patients without reduced parenteral nutrition. Human patients either received placebo or teduglutide at 0.05 mg/kg/day. Known biomarkers of liver function were monitored for 24 weeks. The liver biomarkers tested included ALP, ALT, AST, total bilirubin and GGTP.
# Table 6 depicts the change in liver enzyme levels (ALP, ALT, AST, total bilirubin and GGTP), as presented in Table 5, and stratifies them by treatment group (placebo versus teduglutide at 0.05 mg/kg/day) and responder status (responder versus non-responder).
smiles,measurement,setting,value
CC[C@H](C)[C@H](NC(=O)[C@H](Cc1ccccc1)NC(=O)[C@H](CC(=O)O)NC(=O)[C@H](CCCNC(=N)N)NC(=O)[C@H](C)NC(=O)[C@H](C)NC(=O)[C@H](CC(C)C)NC(=O)[C@H](CC(N)=O)NC(=O)[C@H](CC(=O)O)NC(=O)[C@H](CC(C)C)NC(=O)[C@@H](NC(=O)[C@@H](NC(=O)[C@H](CC(N)=O)NC(=O)[C@H](CCSC)NC(=O)[C@H](CCC(=O)O)NC(=O)[C@H](CC(=O)O)NC(=O)[C@H](CO)NC(=O)[C@H](Cc1ccccc1)NC(=O)[C@H](CO)NC(=O)CNC(=O)[C@H](CC(=O)O)NC(=O)CNC(=O)[C@@H](N)Cc1c[nH]cn1)[C@@H](C)O)[C@@H](C)CC)C(=O)N[C@@H](CC(N)=O)C(=O)N[C@@H](Cc1c[nH]c2ccccc12)C(=O)N[C@@H](CC(C)C)C(=O)N[C@H](C(=O)N[C@@H](CCC(N)=O)C(=O)N[C@H](C(=O)N[C@@H](CCCCN)C(=O)N[C@H](C(=O)N[C@H](C(=O)N[C@@H](CC(=O)O)C(=O)O)[C@@H](C)O)[C@@H](C)CC)[C@@H](C)O)[C@@H](C)CC [teduglutide],relation of effect on liver function tests to reduction of parenteral nutrition (responders vs non-responders),baseline to week 24,the major part of the effect is not mediated through the reduction of parenteral nutrition
same,"ALKALINE PHOSPHATASE change from Baseline to Week 24, Mean","Non-responder, n=11",−13.82 U/L
same,"ALKALINE PHOSPHATASE change from Baseline to Week 24, Median","Non-responder, n=11",−7 U/L
same,"ALT change from Baseline to Week 24, Mean","Non-responder, n=11",−3.82 U/L
same,"ALT change from Baseline to Week 24, Median","Non-responder, n=11",−3 U/L
same,"AST change from Baseline to Week 24, Mean","Non-responder, n=11",−2.18 U/L
same,"AST change from Baseline to Week 24, Median","Non-responder, n=11",−2 U/L
same,"BILIRUBIN, TOTAL change from Baseline to Week 24, Mean","Non-responder, n=11",-2.43 µmol/L
same,"BILIRUBIN, TOTAL change from Baseline to Week 24, Median","Non-responder, n=11",-1.7 µmol/L
same,"GGTP change from Baseline to Week 24, Mean","Non-responder, n=11",−1.91 U/L
same,"GGTP change from Baseline to Week 24, Median","Non-responder, n=11",3 U/L
same,"ALKALINE PHOSPHATASE change from Baseline to Week 24, Mean","Responder, n=27",−35.52 U/L
same,"ALKALINE PHOSPHATASE change from Baseline to Week 24, Median","Responder, n=27",−34 U/L
same,"ALT change from Baseline to Week 24, Mean","Responder, n=27",−17.48 U/L
same,"ALT change from Baseline to Week 24, Median","Responder, n=27",−14 U/L
same,"AST change from Baseline to Week 24, Mean","Responder, n=27",−7.30 U/L
same,"AST change from Baseline to Week 24, Median","Responder, n=27",−7 U/L
same,"BILIRUBIN, TOTAL change from Baseline to Week 24, Mean","Responder, n=27",-4.19 µmol/L
same,"BILIRUBIN, TOTAL change from Baseline to Week 24, Median","Responder, n=27",-2.4 µmol/L
same,"GGTP change from Baseline to Week 24, Mean","Responder, n=27",−18.41 U/L
same,"GGTP change from Baseline to Week 24, Median","Responder, n=27",−10 U/L
same,"ALKALINE PHOSPHATASE change from Baseline to Week 24, Mean","Total, n=38",−29.24 U/L
same,"ALKALINE PHOSPHATASE change from Baseline to Week 24, Median","Total, n=38",−24.5 U/L
same,"ALT change from Baseline to Week 24, Mean","Total, n=38",−13.53 U/L
same,"ALT change from Baseline to Week 24, Median","Total, n=38",−7.5 U/L
same,"AST change from Baseline to Week 24, Mean","Total, n=38",−5.82 U/L
same,"AST change from Baseline to Week 24, Median","Total, n=38",−5 U/L
same,"BILIRUBIN, TOTAL change from Baseline to Week 24, Mean","Total, n=38",-3.68 µmol/L
same,"BILIRUBIN, TOTAL change from Baseline to Week 24, Median","Total, n=38",-2.35 µmol/L
same,"GGTP change from Baseline to Week 24, Mean","Total, n=38",−13.63 U/L
same,"GGTP change from Baseline to Week 24, Median","Total, n=38",−6 U/L
same,"ALKALINE PHOSPHATASE change from Baseline to Week 24, LS Means",by Treatment,−24.67 U/L
same,"ALT change from Baseline to Week 24, LS Means",by Treatment,−10.65 U/L
same,"AST change from Baseline to Week 24, LS Means",by Treatment,−4.74 U/L
same,"BILIRUBIN, TOTAL change from Baseline to Week 24, LS Means",by Treatment,-3.31 µmol/L
same,"GGTP change from Baseline to Week 24, LS Means",by Treatment,−10.16 U/L
